Measurements published in US7671038B1, “Method of therapeautic treatments including human immunodeficiency virus (HIV) disease and other conditions in a human host by administering adenine nucleotides” (priority 1993, dated 2010).
Entries after “also recorded” stand apart in the source; their conditions may differ.

How the values were obtained:
[1] = Phase I continuous intravenous ATP infusions in advanced cancer patients: total blood (red blood cell) ATP levels and adverse effects; type: in vivo, human; settings: after 48 hours of infusion
From the text: In advanced cancer patients with cachexia and malnutrition, the basal blood ATP levels were lower than normal but could be elevated to well above a normal level after ATP infusions.

[2] = system: tumor-bearing murine models; settings: cited from earlier work
[3] = cited from earlier work
TNF-α production = settings: cited from earlier work; for TNF-α biosynthesis inhibition: conclusion of Parmely et al.
endotoxin lethality = settings: mice; cited from earlier work
T-cells = settings: HIV seropositive individuals (without AIDS); cited from earlier work
[4] = activated mouse peritoneal macrophages

SMILES: Nc1ncnc2c1ncn2[C@@H]1O[C@H](COP(=O)(O)OP(=O)(O)OP(=O)(O)O)[C@@H](O)[C@H]1O [ATP, adenosine 5′triphosphate]
- change of total blood levels of ATP (red blood cell ATP pools) ([1]; most patients): doubling
- total blood ATP levels ([1]; basal levels 0.9-1 mM): 1.6 to 2 mM
- host weight loss ([2]; cachectic tumor model, murine hosts): markedly inhibit
- tumor growth ([2]; elevated ATP levels, tumor-bearing murine models): inhibit
- change of blood (red blood cell) ATP levels ([3]; intravenous infusion 50 μg/kg min, after 24 hours, advanced cancer patients): doubling
- decline of elevated blood ATP levels after termination of the ATP infusions ([3]; return of total blood ATP to basal levels): declined over a period of several days; also recorded: declined within several days

SMILES: Nc1ncnc2c1ncn2[C@H]1CC[C@@H](O)C1 [MDL201112, reference compound]
- TNF-α biosynthesis inhibition (TNF-α production): potent inhibitors

SMILES: Nc1ncnc2c1ncn2[C@@H]1O[C@H](CO)[C@@H](O)[C@H]1O [adenosine]
- protection against endotoxin lethality (endotoxin lethality): failed to protect
- RNA levels for TNF-α (TNF-α production; [4]): no effect
- TNF-α production (TNF-α production; [4]): inhibited
- TNF-α biosynthesis inhibition (TNF-α production): potent inhibitors

SMILES: C[C@H]1O[C@@H](n2cnc3c(N)ncnc32)C[C@@H]1O [ddAdo, 2′,5′-dideoxyadenosine]
- cyclic AMP levels (T-cells): reduce
- proliferative capacity of T-cells to recall antigens and T-cell cytotoxicity (T-cells): increase
